Laboratory results published in ChEMBL document CHEMBL1151505, “Imino 1,2,3,4-tetrahydrocyclopent[b]indole carbamates as dual inhibitors of acetylcholinesterase and monoamine oxidase” (Bioorg Med Chem Lett, 1996).
Where “and” joins values, the source holds several entries; their conditions need not be identical. Equal entries are not always repeated. Calls of active or inactive are those of the source. No cut-off for these calls is given here.

Legend:
[1] = target: T1, Amine oxidase [flavin-containing] B (Homo sapiens, UniProt P27338); test: Compound was tested for inhibition of monoamine oxidase-B (MAO-B).
T1 sequence (P27338 whole entry): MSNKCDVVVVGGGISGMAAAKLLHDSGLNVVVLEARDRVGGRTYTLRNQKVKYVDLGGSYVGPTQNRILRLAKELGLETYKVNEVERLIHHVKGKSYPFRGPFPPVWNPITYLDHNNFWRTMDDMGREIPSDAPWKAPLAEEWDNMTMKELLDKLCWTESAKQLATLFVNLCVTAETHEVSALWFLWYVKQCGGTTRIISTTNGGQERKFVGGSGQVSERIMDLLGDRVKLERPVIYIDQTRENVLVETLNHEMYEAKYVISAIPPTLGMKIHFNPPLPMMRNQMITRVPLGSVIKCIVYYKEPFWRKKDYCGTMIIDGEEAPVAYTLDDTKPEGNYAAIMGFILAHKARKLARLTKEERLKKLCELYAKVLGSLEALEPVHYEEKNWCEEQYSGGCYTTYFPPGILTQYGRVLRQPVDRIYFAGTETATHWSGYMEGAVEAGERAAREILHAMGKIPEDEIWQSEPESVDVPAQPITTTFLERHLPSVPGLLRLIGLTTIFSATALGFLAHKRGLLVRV

[2] = target: T2, Amine oxidase [flavin-containing] A (Homo sapiens, UniProt P21397); test: Compound was tested for inhibition of monoamine oxidase-A (MAO-A).
T2 sequence (P21397 whole entry): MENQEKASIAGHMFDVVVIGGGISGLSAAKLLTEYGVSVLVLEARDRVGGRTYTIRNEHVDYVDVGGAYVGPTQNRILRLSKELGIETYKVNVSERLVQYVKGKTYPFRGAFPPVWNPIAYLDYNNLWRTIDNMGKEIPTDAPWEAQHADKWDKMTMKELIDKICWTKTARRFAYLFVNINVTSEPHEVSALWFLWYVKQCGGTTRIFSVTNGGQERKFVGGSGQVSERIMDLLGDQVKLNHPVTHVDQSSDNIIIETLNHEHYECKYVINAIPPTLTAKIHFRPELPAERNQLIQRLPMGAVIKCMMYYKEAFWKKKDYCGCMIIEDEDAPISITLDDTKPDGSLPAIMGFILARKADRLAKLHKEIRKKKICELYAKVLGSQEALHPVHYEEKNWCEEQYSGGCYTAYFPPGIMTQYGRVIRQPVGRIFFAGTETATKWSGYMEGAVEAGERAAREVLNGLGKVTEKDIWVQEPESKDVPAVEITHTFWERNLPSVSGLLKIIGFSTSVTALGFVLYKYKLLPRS

Acetylcholinesterase [3] = target: T3, Acetylcholinesterase (Homo sapiens, UniProt P22303); test: Inhibition of acetylcholinesterase.
[4] = target: T2, Amine oxidase [flavin-containing] A; test: Compound was tested for inhibition of monoamine oxidase-A (MAO-A) at 10 mg/kg dose upon peroral administration in 48 hr time interval; type: organism-based; set-up: dose 10 mg/kg, route oral; conditions: po
[5] = target: T1, Amine oxidase [flavin-containing] B; test: Compound was tested for inhibition of monoamine oxidase-B (MAO-B) at 10 mg/kg dose upon peroral administration in 24 hr time interval; type: organism-based; set-up: dose 10 mg/kg, route oral; conditions: po
[6] = target: T2, Amine oxidase [flavin-containing] A; test: Compound was tested for inhibition of monoamine oxidase-A (MAO-A) at 10 mg/kg dose upon peroral administration in 4 hr time interval; type: organism-based; set-up: dose 10 mg/kg, route oral; conditions: po
[7] = target: T2, Amine oxidase [flavin-containing] A; test: Compound was tested for inhibition of monoamine oxidase-A (MAO-A) at 10 mg/kg dose upon peroral administration in 24 hr time interval; type: organism-based; set-up: dose 10 mg/kg, route oral; conditions: po
[8] = target: T1, Amine oxidase [flavin-containing] B; test: Compound was tested for inhibition of monoamine oxidase-B (MAO-B) at 10 mg/kg dose upon peroral administration in 4 hr time interval; type: organism-based; set-up: dose 10 mg/kg, route oral; conditions: po
[9] = target: T1, Amine oxidase [flavin-containing] B; test: Compound was tested for inhibition of monoamine oxidase-B (MAO-B) at 10 mg/kg dose upon peroral administration in 48 hr time interval; type: organism-based; set-up: dose 10 mg/kg, route oral; conditions: po
[10] = target: T2, Amine oxidase [flavin-containing] A; test: Compound was tested for inhibition of monoamine oxidase-A (MAO-A) at 10 mg/kg dose upon peroral administration in 1 hr time interval; type: organism-based; set-up: dose 10 mg/kg, route oral; conditions: po
[11] = target: T1, Amine oxidase [flavin-containing] B; test: Compound was tested for inhibition of monoamine oxidase-B (MAO-B) at 10 mg/kg dose upon peroral administration in 1 hr time interval; type: organism-based; set-up: dose 10 mg/kg, route oral; conditions: po
[12] = target: T2, Amine oxidase [flavin-containing] A; test: Compound was tested for inhibition of monoamine oxidase-A (MAO-A) at 50 mg/kg dose upon peroral administration in 4 hr time interval; type: organism-based; set-up: dose 50 mg/kg, route oral; conditions: po
Acetylcholinesterase [13] = target: T3, Acetylcholinesterase; conditions: 50 mg/kg
[14] = target: T2, Amine oxidase [flavin-containing] A; test: Compound was tested for inhibition of monoamine oxidase-A (MAO-A) at 50 mg/kg dose upon peroral administration in 24 hr time interval; type: organism-based; set-up: dose 50 mg/kg, route oral; conditions: po
Acetylcholinesterase [15] = target: T3, Acetylcholinesterase; conditions: 50 mg/kg; remark: listed apart in the source
[16] = target: T2, Amine oxidase [flavin-containing] A; test: Compound was tested for inhibition of monoamine oxidase-A (MAO-A) at 50 mg/kg dose upon peroral administration in 1 hr time interval; type: organism-based; set-up: dose 50 mg/kg, route oral; conditions: po
[17] = target: T2, Amine oxidase [flavin-containing] A; test: Compound was tested for inhibition of monoamine oxidase-A (MAO-A) at 50 mg/kg dose upon peroral administration in 48 hr time interval; type: organism-based; set-up: dose 50 mg/kg, route oral; conditions: po
[18] = target: T1, Amine oxidase [flavin-containing] B; test: Compound was tested for inhibition of monoamine oxidase-B (MAO-B) at 50 mg/kg dose upon peroral administration in 48 hr time interval; type: organism-based; set-up: dose 50 mg/kg, route oral; conditions: in vivo, po
[19] = target: T1, Amine oxidase [flavin-containing] B; test: Compound was tested for inhibition of monoamine oxidase-B (MAO-B) at 50 mg/kg dose upon peroral administration in 24 hr time interval; type: organism-based; set-up: dose 50 mg/kg, route oral; conditions: po
Acetylcholinesterase [20] = target: T3, Acetylcholinesterase; conditions: 50 mg/kg; remark: listed apart in the source
[21] = target: T1, Amine oxidase [flavin-containing] B; test: Compound was tested for inhibition of monoamine oxidase-B (MAO-B) at 50 mg/kg dose upon peroral administration in 4 hr time interval; type: organism-based; set-up: dose 50 mg/kg, route oral; conditions: po
Acetylcholinesterase [22] = target: T3, Acetylcholinesterase; conditions: 10 mg/kg
Description: Compound was tested for inhibition of acetylcholinesterase at 10 mg/kg dose upon peroral administration in 0.5 hr time interval

Acetylcholinesterase [23] = target: T3, Acetylcholinesterase; conditions: 10 mg/kg; remark: listed apart in the source
Description: Compound was tested for inhibition of acetylcholinesterase at 10 mg/kg dose upon peroral administration in 1 hr time interval

Acetylcholinesterase [24] = target: T3, Acetylcholinesterase; conditions: 10 mg/kg; remark: listed apart in the source
Description: Compound was tested for inhibition of acetylcholinesterase at 10 mg/kg dose upon peroral administration in 24 hr time interval

Acetylcholinesterase [25] = target: T3, Acetylcholinesterase; conditions: 10 mg/kg; remark: listed apart in the source
Description: Compound was tested for inhibition of acetylcholinesterase at 10 mg/kg dose upon peroral administration in 4 hr time interval

[26] = target: T1, Amine oxidase [flavin-containing] B; test: Compound was tested for inhibition of monoamine oxidase-B (MAO-B) at 50 mg/kg dose upon peroral administration in 0.5 hr time interval; type: organism-based; set-up: dose 50 mg/kg, route oral; conditions: po
[27] = target: T2, Amine oxidase [flavin-containing] A; test: Compound was tested for inhibition of monoamine oxidase-A (MAO-A) at 50 mg/kg dose upon peroral administration in 48 time interval; type: organism-based; set-up: dose 50 mg/kg, route oral; conditions: po
[28] = target: T1, Amine oxidase [flavin-containing] B; test: Compound was tested for inhibition of monoamine oxidase-B (MAO-B) at 50 mg/kg dose upon peroral administration in 1 hr time interval; type: organism-based; set-up: dose 50 mg/kg, route oral; conditions: po
[29] = target: T2, Amine oxidase [flavin-containing] A; test: Compound was tested for inhibition of monoamine oxidase-A (MAO-A) at 50 mg/kg dose upon peroral administration in 0.5 hr time interval; type: organism-based; set-up: dose 50 mg/kg, route oral; conditions: po
Acetylcholinesterase [30] = target: T3, Acetylcholinesterase; test: Compound was tested for inhibition of acetylcholinesterase at […] dose upon peroral administration in 0.5 hr time interval
Acetylcholinesterase [31] = target: T3, Acetylcholinesterase; test: Compound was tested for inhibition of acetylcholinesterase at 50 mg/kg dose upon peroral administration in 1 hr time interval; type: organism-based; set-up: dose 50 mg/kg
Acetylcholinesterase [32] = target: T3, Acetylcholinesterase; test: Compound was tested for inhibition of acetylcholinesterase at 50 mg/kg dose upon peroral administration in 4 hr time interval; type: organism-based; set-up: dose 50 mg/kg
[33] = target: T1, Amine oxidase [flavin-containing] B; test: Compound was tested for inhibition of monoamine oxidase-B (MAO-B) at 50 mg/kg dose upon peroral administration in 48 time interval; type: organism-based; set-up: dose 50 mg/kg, route oral; conditions: po
Acetylcholinesterase [34] = target: T3, Acetylcholinesterase; test: Compound was tested for inhibition of acetylcholinesterase at 50 mg/kg dose upon peroral administration in 24 hr time interval; type: organism-based; set-up: dose 50 mg/kg

T3 sequence (P22303 whole entry): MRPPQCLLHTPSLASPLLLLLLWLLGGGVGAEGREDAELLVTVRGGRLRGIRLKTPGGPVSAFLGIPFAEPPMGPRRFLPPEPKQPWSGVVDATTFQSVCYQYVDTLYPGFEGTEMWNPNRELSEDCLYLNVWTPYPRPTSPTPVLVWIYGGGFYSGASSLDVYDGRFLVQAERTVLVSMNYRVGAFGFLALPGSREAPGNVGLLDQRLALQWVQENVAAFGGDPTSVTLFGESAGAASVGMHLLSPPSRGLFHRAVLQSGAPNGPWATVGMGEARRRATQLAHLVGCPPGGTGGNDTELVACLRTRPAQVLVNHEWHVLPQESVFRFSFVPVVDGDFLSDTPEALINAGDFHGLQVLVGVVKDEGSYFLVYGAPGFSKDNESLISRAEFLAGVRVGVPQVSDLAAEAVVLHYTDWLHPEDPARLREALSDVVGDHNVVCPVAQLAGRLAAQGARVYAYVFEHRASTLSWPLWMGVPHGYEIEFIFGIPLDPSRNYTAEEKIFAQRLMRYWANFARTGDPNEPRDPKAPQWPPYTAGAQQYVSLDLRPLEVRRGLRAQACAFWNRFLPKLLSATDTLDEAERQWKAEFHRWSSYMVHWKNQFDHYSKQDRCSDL

| SMILES | IC50 [1] | IC50 [2] | IC50 (Acetylcholinesterase [3]) | other results |
| --- | --- | --- | --- | --- |
| CCC/N=C1/CCc2c1n(C)c1ccccc21 | > 1000 µM | 1.61 µM | – | – |
| C/N=C1/CCc2c1n(C)c1ccc(OC(=O)NCc3ccccc3)c(Br)c21 | > 1000 µM | 5.47 µM | 4.19 µM | – |
| CC/N=C1/CCc2c1n(C)c1ccc(OC(=O)NC)cc21 | > 1000 µM | 3.74 µM | 5.68 µM | – |
| CC/N=C1/CCc2c1n(C)c1ccccc21 | 77.6 µM | 2.12 µM | – | – |
| CCC/N=C1/CCc2c1n(C)c1ccc(OC(=O)NC)cc21 | > 1000 µM | 25.4 µM | 3.84 µM | – |
| CCCn1c2c(c3c(Br)c(OC(=O)NC)ccc31)CC/C2=N/CC | > 1000 µM | > 1000 µM | 0.23 µM | – |
| C/N=C1/CCc2c1n(C)c1ccc(OC(=O)NC)cc21 | > 1000 µM | 13.6 µM | 3.36 µM | – |
| Cn1c2c(c3ccccc31)CC/C2=N/Cc1ccncc1 | > 1000 µM | 113 µM | – | – |
| COc1cc(Br)c2oc(C3CCNCC3)cc2c1 [BROFAROMINE] | 23.4 µM | 0.18 µM | – | inhibition at 10 mg/kg [4]: 13.2%; inhibition at 10 mg/kg [5]: 22.2%; inhibition at 10 mg/kg [6]: 64.2%; inhibition at 10 mg/kg [7]: 28.7%; inhibition at 10 mg/kg [8]: 42.6%; inhibition at 10 mg/kg [9]: 18.3%; inhibition at 10 mg/kg [10]: 52.1%; inhibition at 10 mg/kg [11]: 29.6% |
| C/N=C1/CCc2c1n(C)c1ccc(OC(=O)N(C)C)c(Br)c21 | 51 µM | 0.54 µM | 0.06 µM | inhibition at 50 mg/kg [12]: 58.8%; inhibition (Acetylcholinesterase [13]): inactive; inhibition at 50 mg/kg [14]: 23.2%; inhibition (Acetylcholinesterase [15]): inactive; inhibition at 50 mg/kg [16]: 44%; inhibition at 50 mg/kg [17]: 22.3%; Inhibition [18]: 10.1% and 20.4%; inhibition at 50 mg/kg [19]: 6.6%; inhibition (Acetylcholinesterase [20]): inactive; inhibition at 50 mg/kg [21]: 25.9% |
| C/N=C1/CCc2c1n(C)c1ccc(OC(=O)NC)c(Cl)c21 | > 1000 µM | 1.36 µM | 0.23 µM | – |
| CCCCNC(=O)Oc1ccc2c(c1Br)c1c(n2C)/C(=N\C)CC1 | 175 µM | 0.75 µM | 3.17 µM | – |
| CNC(=O)Oc1ccc2c(c1)c1c(n2C)/C(=N\CCc2ccccc2)CC1 | > 1000 µM | > 1000 µM | 0.16 µM | – |
| CCCCCCCNC(=O)Oc1ccc2c(c1)[C@]1(C)CCN(C)[C@@H]1N2C [EPTASTIGMINE] | – | – | 0.009 µM | inhibition (Acetylcholinesterase [22]): 33.2%; inhibition (Acetylcholinesterase [23]): 52.3%; inhibition (Acetylcholinesterase [24]): 20.8%; inhibition (Acetylcholinesterase [25]): 72.9% |
| C/N=C1/CCc2c1n(C)c1ccccc21 | 317 µM | 0.92 µM | – | – |
| C/N=C1/CCc2c1n(C)c1ccc(OC(=O)NC)c(Br)c21 | > 1000 µM | 0.65 µM | 0.18 µM | – |
| CC/N=C1/CCc2c1n(C)c1ccc(OC(=O)NC)c(Cl)c21 | > 1000 µM | 0.1 µM | 0.16 µM | – |
| CC(C)/N=C1/CCc2c1n(C)c1ccccc21 | > 1000 µM | 30.8 µM | – | – |
| C/N=C1/CCc2c1n(C)c1cc(Cl)c(OC(=O)NC)cc21 | 395 µM | 22.5 µM | 0.67 µM | – |
| CC/N=C1/CCc2c1n(C)c1ccc(OC(=O)NC)c(Br)c21 | > 1000 µM | 0.21 µM | 0.14 µM | inhibition at 50 mg/kg [12]: 48.9%; inhibition at 50 mg/kg [26]: 21.5%; inhibition at 50 mg/kg [14]: 13.1%; inhibition at 50 mg/kg [27]: 11.7%; inhibition at 50 mg/kg [16]: 33.3%; inhibition at 50 mg/kg [28]: 17.2%; inhibition at 50 mg/kg [29]: 28.2%; inhibition at 50 mg/kg [19]: 17.8%; inhibition (Acetylcholinesterase [30]): 15.1%; inhibition (Acetylcholinesterase [31]): 19.4%; inhibition at 50 mg/kg [21]: 25.9%; inhibition (Acetylcholinesterase [32]): 30.9%; inhibition at 50 mg/kg [33]: 9.3%; inhibition (Acetylcholinesterase [34]): 0.2% |
